# Source: ChEMBL document CHEMBL1158299, “Effects on cultured neonatal mouse calvaria of the flavonoids isolated from Boerhaavia repens” (1996)
# Calls of active or inactive are those of the source. The calls are words filed in the database; no cut-off is given here.
# Tests used:
# Details in all cases: Bone element
# [1] = tested on: Bone; assay: Inhibition of PTH-induced bone resorption in mouse parietal bone culture assessed as 45Ca2 release into culture medium at 200 uM after 4 to 6 days by liquid scintillation counting; format: functional
# [2] = tested on: Bone; assay: Inhibition of bone resorption in mouse parietal bone culture assessed as 45Ca2 release into culture medium at 200 uM after 0 to 3 days by liquid scintillation counting; format: functional
# [3] = tested on: Bone; assay: Inhibition of bone resorption in mouse parietal bone culture assessed as 45Ca2 release into culture medium at 200 uM after 4 to 6 days by liquid scintillation counting; format: functional
# [4] = tested on: Bone; assay: Inhibition of PTH-induced bone resorption in mouse parietal bone culture assessed as 45Ca2 release into culture medium at 200 uM by liquid scintillation counting; format: functional, tissue-based
Structure (SMILES),inhibition at 200 µM [1] [%],inhibition at 200 µM [2] [%],inhibition at 200 µM [3] [%],Activity [4]
COc1cc2oc(-c3ccc(O)cc3)c(O[C@@H]3O[C@H](CO)[C@H](O)[C@H](O)[C@H]3O)c(=O)c2c(O)c1OC,55.3,20.6,23.1,
COc1c(O)cc2oc(-c3ccc(O)cc3)c(O[C@@H]3O[C@H](CO[C@@H]4O[C@@H](C)[C@H](O)[C@@H](O)[C@H]4O)[C@H](O)[C@H](O)[C@H]3O)c(=O)c2c1O,,,,inactive
COc1cc2oc(-c3ccc(O)cc3)c(O[C@@H]3O[C@H](CO)[C@@H](O)[C@H](O)[C@H]3O[C@@H]3O[C@H](CO)[C@H](O)[C@H](O)[C@H]3O)c(=O)c2c(O)c1OC,60.3,29.1,38,
